Data taken from ChEMBL document CHEMBL2086355, “Synthesis and SAR of 2',3'-bis-O-substituted N(6), 5'-bis-ureidoadenosine derivatives: implications for prodrug delivery and mechanism of action” (Bioorg Med Chem Lett, 2012).
Values after ≈ are worked out from the molar mass of the structure shown.

What was measured:
L1210 = experiment: Antiproliferative activity against mouse L1210 cells after 48 hrs by Coulter counting analysis; type: functional, cell-based; settings: L1210, 48 h
FM3A = experiment: Antiproliferative activity against mouse FM3A cells after 48 hrs by Coulter counting analysis; type: functional, cell-based
HeLa = experiment: Antiproliferative activity against human HeLa cells after 96 hrs by Coulter counting analysis; type: functional, cell-based
CCRF-CEM = experiment: Antiproliferative activity against human CEM cells after 72 hrs by Coulter counting analysis; type: functional, cell-based
[1] = target: Bone morphogenetic protein receptor type-1B (Homo sapiens) (UniProt O00238); experiment: Inhibition of BMPR1b assessed as activity remaining at 10 uM by competitive binding inhibition assay
Chain of Bone morphogenetic protein receptor type-1B (Homo sapiens) (O00238 whole entry): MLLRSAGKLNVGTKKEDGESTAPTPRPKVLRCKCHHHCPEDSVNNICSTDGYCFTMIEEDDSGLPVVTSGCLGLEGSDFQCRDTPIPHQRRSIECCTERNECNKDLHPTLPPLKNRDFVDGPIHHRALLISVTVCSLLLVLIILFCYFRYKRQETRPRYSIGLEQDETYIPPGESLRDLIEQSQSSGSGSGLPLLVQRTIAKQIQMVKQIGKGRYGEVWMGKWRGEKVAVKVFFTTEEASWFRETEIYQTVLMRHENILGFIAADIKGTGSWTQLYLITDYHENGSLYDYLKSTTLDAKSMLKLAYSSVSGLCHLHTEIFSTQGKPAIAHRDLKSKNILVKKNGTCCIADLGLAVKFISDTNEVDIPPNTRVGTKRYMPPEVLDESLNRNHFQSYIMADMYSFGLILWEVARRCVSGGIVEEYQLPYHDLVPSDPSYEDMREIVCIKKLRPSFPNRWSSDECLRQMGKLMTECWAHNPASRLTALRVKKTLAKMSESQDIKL

SMILES	IC50 (L1210)	IC50 (FM3A)	IC50 (HeLa)	IC50 (CCRF-CEM)	Activity [1]
CNC(=O)NC[C@H]1O[C@@H](n2cnc3c(N)ncnc32)[C@H](OC(C)=O)[C@@H]1OC(C)=O	112 µg/mL (≈ 275 µM)	> 200 µg/mL	> 200 µg/mL	> 200 µg/mL	
CC[Si](CC)(CC)O[C@@H]1[C@H](O[Si](CC)(CC)CC)[C@@H](CNC(=O)NC)O[C@H]1n1cnc2c(NC(=O)Nc3ccccc3)ncnc21	3.8 µg/mL (≈ 5.66 µM)	3 µg/mL (≈ 4.47 µM)	3.7 µg/mL (≈ 5.51 µM)	4.2 µg/mL (≈ 6.26 µM)	100%
CNC(=O)NC[C@H]1O[C@@H](n2cnc3c(NC(=O)Nc4ccccc4)ncnc32)[C@H](OC(C)=O)[C@@H]1OC(C)=O	97 µg/mL (≈ 184 µM)	150 µg/mL (≈ 285 µM)	> 200 µg/mL	107 µg/mL (≈ 203 µM)	95%
CCCCCCCC(=O)O[C@@H]1[C@H](OC(=O)CCCCCCC)[C@@H](CNC(=O)NC)O[C@H]1n1cnc2c(NC(=O)Nc3ccccc3)ncnc21	11 µg/mL (≈ 15.8 µM)	32 µg/mL (≈ 46.1 µM)	16 µg/mL (≈ 23 µM)	12 µg/mL (≈ 17.3 µM)	
CNC(=O)NC[C@H]1O[C@@H](n2cnc3c(NC(=O)Nc4ccccc4)ncnc32)[C@H](OC(=O)C(C)(C)C)[C@@H]1OC(=O)C(C)(C)C	9.7 µg/mL (≈ 15.9 µM)	15 µg/mL (≈ 24.6 µM)	17 µg/mL (≈ 27.8 µM)	20 µg/mL (≈ 32.8 µM)	
CCCCCC(=O)O[C@@H]1[C@H](OC(=O)CCCCC)[C@@H](CNC(=O)NC)O[C@H]1n1cnc2c(NC(=O)Nc3ccccc3)ncnc21	9.5 µg/mL (≈ 14.9 µM)	20 µg/mL (≈ 31.3 µM)	15 µg/mL (≈ 23.5 µM)	10 µg/mL (≈ 15.7 µM)	
CNC(=O)NC[C@H]1O[C@@H](n2cnc3c(N)ncnc32)[C@H](OC(=O)C(C)C)[C@@H]1OC(=O)C(C)C	87 µg/mL (≈ 188 µM)	107 µg/mL (≈ 231 µM)	99 µg/mL (≈ 214 µM)	88 µg/mL (≈ 190 µM)	
CCCCCCCCCCCCCCCC(=O)O[C@@H]1[C@H](OC(=O)CCCCCCCCCCCCCCC)[C@@H](CNC(=O)NC)O[C@H]1n1cnc2c(NC(=O)Nc3ccccc3)ncnc21	> 100 µg/mL	> 200 µg/mL	> 100 µg/mL	> 100 µg/mL	
CNC(=O)NC[C@H]1O[C@@H](n2cnc3c(NC(=O)Nc4ccccc4)ncnc32)[C@H](OC(=O)c2ccccc2)[C@@H]1OC(=O)c1ccccc1	154 µg/mL (≈ 237 µM)	61 µg/mL (≈ 93.8 µM)	> 200 µg/mL	> 200 µg/mL	100%
CNC(=O)NC[C@H]1O[C@@H](n2cnc3c(N)ncnc32)[C@H](OC(=O)c2ccccc2)[C@@H]1OC(=O)c1ccccc1	16 µg/mL (≈ 30.1 µM)	36 µg/mL (≈ 67.7 µM)	40 µg/mL (≈ 75.3 µM)	19 µg/mL (≈ 35.7 µM)	
CNC(=O)NC[C@H]1O[C@@H](n2cnc3c(NC(=O)Nc4ccccc4)ncnc32)[C@H](O[Si](c2ccccc2)(c2ccccc2)C(C)(C)C)[C@@H]1O[Si](c1ccccc1)(c1ccccc1)C(C)(C)C	> 200 µg/mL	> 200 µg/mL	104 µg/mL (≈ 113 µM)	≥ 200 µg/mL	100%
CCCCCCCCCC(=O)O[C@@H]1[C@H](OC(=O)CCCCCCCCC)[C@@H](CNC(=O)NC)O[C@H]1n1cnc2c(NC(=O)Nc3ccccc3)ncnc21	> 100 µg/mL	140 µg/mL (≈ 186 µM)	> 100 µg/mL	> 100 µg/mL	
CNC(=O)NC[C@H]1O[C@@H](n2cnc3c(NC(=O)Nc4ccccc4)ncnc32)[C@H](OC(=O)C(C)C)[C@@H]1OC(=O)C(C)C	29 µg/mL (≈ 49.8 µM)	44 µg/mL (≈ 75.5 µM)	73 µg/mL (≈ 125 µM)	28 µg/mL (≈ 48.1 µM)	100%
CNC(=O)NC[C@H]1O[C@@H](n2cnc3c(NC(=O)Nc4ccccc4)ncnc32)[C@H](O[Si](C(C)C)(C(C)C)C(C)C)[C@@H]1O[Si](C(C)C)(C(C)C)C(C)C	> 200 µg/mL	> 200 µg/mL	≥ 200 µg/mL	142 µg/mL (≈ 188 µM)	100%
CCCC(=O)O[C@@H]1[C@H](OC(=O)CCC)[C@@H](CNC(=O)NC)O[C@H]1n1cnc2c(NC(=O)Nc3ccccc3)ncnc21	20 µg/mL (≈ 34.3 µM)	18 µg/mL (≈ 30.9 µM)	58 µg/mL (≈ 99.6 µM)	29 µg/mL (≈ 49.8 µM)	
